Measurements published in ChEMBL document CHEMBL1129590, “Tyrphostins. 6. Dimeric benzylidenemalononitrile tyrophostins: potent inhibitors of EGF receptor tyrosine kinase in vitro” (J Med Chem, 1996).

Legend:
[1] = biological target: T1, Epidermal growth factor receptor (Homo sapiens, UniProt P00533); test: Inhibition of epidermal growth factor receptor (EGFR) phosphorylation of the exogenous substrate poly(Glu6, Ala3,Tyr) (polyGAT)
[2] = biological target: T1, Epidermal growth factor receptor; test: Inhibitory activity of compound against Epidermal growth factor receptor autophosphorylation

T1 sequence (P00533 whole entry): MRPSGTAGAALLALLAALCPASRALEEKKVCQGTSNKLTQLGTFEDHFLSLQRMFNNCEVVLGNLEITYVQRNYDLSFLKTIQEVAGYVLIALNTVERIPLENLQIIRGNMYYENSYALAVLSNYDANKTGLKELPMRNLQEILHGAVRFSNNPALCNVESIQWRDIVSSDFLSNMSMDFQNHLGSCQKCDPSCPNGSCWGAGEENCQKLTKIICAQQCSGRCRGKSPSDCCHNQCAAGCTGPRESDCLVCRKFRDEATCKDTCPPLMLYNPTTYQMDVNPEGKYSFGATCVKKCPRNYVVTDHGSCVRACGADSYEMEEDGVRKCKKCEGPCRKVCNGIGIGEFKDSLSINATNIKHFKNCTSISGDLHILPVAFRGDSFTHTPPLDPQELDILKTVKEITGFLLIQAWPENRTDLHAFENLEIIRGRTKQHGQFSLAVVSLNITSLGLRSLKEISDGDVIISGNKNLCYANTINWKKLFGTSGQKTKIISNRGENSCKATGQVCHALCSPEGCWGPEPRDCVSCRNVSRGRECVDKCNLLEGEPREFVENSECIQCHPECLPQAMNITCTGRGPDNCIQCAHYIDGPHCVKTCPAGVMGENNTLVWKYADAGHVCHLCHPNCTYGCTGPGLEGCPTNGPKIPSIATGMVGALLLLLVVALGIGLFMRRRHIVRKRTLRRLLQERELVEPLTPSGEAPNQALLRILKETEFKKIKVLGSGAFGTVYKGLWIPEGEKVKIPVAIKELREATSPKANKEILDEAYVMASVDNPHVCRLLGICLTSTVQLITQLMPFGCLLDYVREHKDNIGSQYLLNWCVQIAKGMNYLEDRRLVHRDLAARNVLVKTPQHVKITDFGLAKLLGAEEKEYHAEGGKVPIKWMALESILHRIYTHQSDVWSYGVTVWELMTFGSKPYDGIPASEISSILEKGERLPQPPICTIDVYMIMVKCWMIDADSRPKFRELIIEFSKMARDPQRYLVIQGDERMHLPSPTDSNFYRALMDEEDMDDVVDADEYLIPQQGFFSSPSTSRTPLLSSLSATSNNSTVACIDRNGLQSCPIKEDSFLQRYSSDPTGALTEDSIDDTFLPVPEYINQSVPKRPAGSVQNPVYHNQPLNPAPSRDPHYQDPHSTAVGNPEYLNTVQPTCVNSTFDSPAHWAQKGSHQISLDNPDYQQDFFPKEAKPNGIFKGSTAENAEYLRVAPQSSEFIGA

IC50 [1] [µM] | IC50 [2] [µM] | Structure (SMILES)
2.1 | 13.5 | N#C/C(=C\c1ccc(O)c(O)c1)C(=O)NC1CCCC[C@@H]1NC(=O)/C(C#N)=C/c1ccc(O)c(O)c1 (some centres not stated)
0.7 | 20 | N#C/C(=C\c1ccc(O)c(O)c1)C(=O)NCCCCCNC(=O)/C(C#N)=C/c1ccc(O)c(O)c1
0.7 | 11 | N#C/C(=C\c1ccc(O)c(O)c1)C(=O)NCCCCCCNC(=O)/C(C#N)=C/c1ccc(O)c(O)c1
– | > 83 | N#C/C(=C\c1ccc(O)c(O)c1)C(=O)NCN1CCN(C(=O)/C(C#N)=C/c2ccc(O)c(O)c2)CC1
0.6 | 4.3 | N#C/C(=C\c1ccc(O)c(O)c1)C(=O)NCCCCNC(=O)/C(C#N)=C/c1ccc(O)c(O)c1
1.3 | > 100 | N#C/C(=C\c1ccc(O)c(O)c1)C(=O)NCCCCCCCCCCNC(=O)/C(C#N)=C/c1ccc(O)c(O)c1
1.8 | > 100 | N#C/C(=C\c1ccc(O)c(O)c1)C(=O)NCC1CCCC(CNC(=O)/C(C#N)=C/c2ccc(O)c(O)c2)C1 (configuration not stated)
1.6 | 10.3 | N#C/C(=C\c1ccc(O)c(O)c1)C(=O)NCc1cccc(CNC(=O)/C(C#N)=C/c2ccc(O)c(O)c2)c1
0.5 | 113 | N#C/C(=C\c1ccc(O)c(O)c1)C(=O)NCCNC(=O)/C(C#N)=C/c1ccc(O)c(O)c1

Further lines, the molecule ahead of its results:

Structure (SMILES) | IC50 [1] [µM] | IC50 [2] [µM]
N#C/C(=C\c1cc(O)c(O)c(Br)c1)C(=O)NCCCNC(=O)/C(C#N)=C/c1cc(O)c(O)c(Br)c1 | 0.34 | 3.9
N#C/C(=C\c1cc(O)c(O)c(Br)c1)S(=O)(=O)/C(C#N)=C/c1cc(O)c(O)c(Br)c1 | 0.85 | 1.4
N#C/C(=C\c1cc(O)c(O)c(O)c1)C(=O)NCCCCNC(=O)/C(C#N)=C/c1cc(O)c(O)c(O)c1 | 0.6 | 21
COc1cc(/C=C(\C#N)C(=O)NCCCCNC(=O)/C(C#N)=C/c2cc(OC)c(O)c([N+](=O)[O-])c2)cc([N+](=O)[O-])c1O | 112 | 19
N#C/C(=C\c1ccc(O)c(O)c1)C(=O)NCCN1CCN(C(=O)/C(C#N)=C/c2ccc(O)c(O)c2)CC1 | 2.2 | 10
COc1cc(/C=C(\C#N)C(=O)NCCCCNC(=O)/C(C#N)=C/c2cc(Br)c(O)c(OC)c2)cc(Br)c1O | – | 102
N#C/C(=C\c1ccc(O)c(O)c1)C(=O)NC1CCC(CC2CCC(NC(=O)/C(C#N)=C/c3ccc(O)c(O)c3)CC2)CC1 (configuration not stated) | – | > 83
N#C/C(=C\c1ccc(O)c(O)c1)S(=O)(=O)/C(C#N)=C/c1ccc(O)c(O)c1 | 0.38 | 12
N#C/C(=C\c1ccc(O)c(O)c1)C(=O)NCCCN1CCN(CCCNC(=O)/C(C#N)=C/c2ccc(O)c(O)c2)CC1 | – | > 167
N#C/C(=C\c1cc(O)c(O)c([N+](=O)[O-])c1)C(=O)NCCCNC(=O)/C(C#N)=C/c1cc(O)c(O)c([N+](=O)[O-])c1 | – | > 100
N#C/C(=C\c1ccc2[nH]ccc2c1)C(=O)NCCCNC(=O)/C(C#N)=C/c1ccc2[nH]ccc2c1 | > 100 | > 100
N#C/C(=C\c1ccc(O)c(O)c1)C(=O)N1CCN(C(=O)/C(C#N)=C/c2ccc(O)c(O)c2)CC1 | 4 | 25
